Data published in US10501479B2, “Benzenesulfonyl-asymmetric ureas and medical uses thereof” (HELSINN HEALTHCARE SA, priority 2016, dated 2019).
Where two headings read alike, the source gives them in different places.

Columns and labels:
Type in all cases: cell-based
[1] = target: T1, GHSR-1a (HEK293/GHSR1a cell line) (Homo sapiens, UniProt Q92847); assay: Ghrelin agonist potency (EC50) with calcium FLIPR assay; details: for EC50: HEK293/GHSR1a, read-out: Activity EC50/EMax: EC50 (ghrelin agonist potency)
T1 construct: expressed in transfected cells; host or cells: HEK293/GHSR1a cell line
Description: Evaluation of Ghrelin Agonist (EC50) and Antagonist Potency (IC50) with Calcium FLIPR Assay:
The intracellular calcium assay was carried out in a 384-well format FLIPR™ (Molecular Device) HEK293/GHSR1a cell line. Cells were seeded 24 hr prior to the experiments at an optimal density per well. Preincubation with selected calcium dye lasted for 30-60 min at room temperature or 37° C. Test compounds, dissolved in DMSO, were added at the appropriate time and incubated for 15 min followed by the addition of ghrelin with FlexStation or FLIPR. Relative fluorescence was monitored by the FLIPR™ Molecular Device. EC50 and IC50 values were estimated from dose-response data using GraphPad Prism software. To check for GHSR-1a agonism, the compound was added at t=20 sec. and the calcium response was followed for 2 minutes. To check for GHSR-1a antagonism, the compound and Ghrelin (10 nM) were added to the cells at t=20 sec. and the calcium response was measured for 2 minutes. The potency of the antagonist was calculated by its ability to reduce the ghrelin response. Dose-response curves were made for relevant antagonists.

[2] = target: T2, recombinant human ghrelin receptor (HEK293/GRLN) (Homo sapiens, UniProt Q92847); assay: Ghrelin inverse agonist potency (EC50) with IP-1 (IP-One HTRF) assay; details: IP-1 assay
T2 construct: expressed in transfected cells
Outline: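 HEK293/GRLN cells were seeded 18-22 hours before the test, then exposed to compound in stimulation buffer for 1 hour at 37° C, 5% CO2. IP-1 was detected by IP-One HTRF (IP1-d2 plus Tb-cryptate, 1 hour RT), reading 620 and 665 nm; the inverse agonist EC50 was derived from this.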

[3] = target: T1, GHSR-1a (HEK293/GHSR1a cell line); assay: Ghrelin antagonist potency (IC50) with calcium FLIPR assay, ghrelin 10 nM
Outline: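 Potency values were estimated from dose-response curves of relative fluorescence, with calcium followed for 2 minutes after additions at t=20 sec. Agonism was tested with compound alone. Antagonism was tested with compound plus 10 nM ghrelin and scored as a reduction of the ghrelin signal.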

[4] = HEK293/GRLN, read-out: Activity EC50 (ghrelin inverse agonist potency)
[5] = HEK293/GHSR1a, ghrelin 10 nM, read-out: Activity IC50 (ghrelin antagonist potency)

T2 sequence (Q92847 whole entry): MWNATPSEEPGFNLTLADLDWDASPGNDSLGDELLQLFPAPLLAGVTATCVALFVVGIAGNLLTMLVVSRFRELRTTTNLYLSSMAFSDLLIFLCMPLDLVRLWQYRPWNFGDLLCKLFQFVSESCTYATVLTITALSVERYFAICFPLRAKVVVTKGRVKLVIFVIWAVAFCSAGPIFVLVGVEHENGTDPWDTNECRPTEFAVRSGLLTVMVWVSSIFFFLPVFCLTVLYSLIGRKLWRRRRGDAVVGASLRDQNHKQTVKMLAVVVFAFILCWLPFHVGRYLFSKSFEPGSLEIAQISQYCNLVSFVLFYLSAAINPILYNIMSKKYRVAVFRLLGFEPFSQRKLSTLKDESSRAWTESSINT
T1 sequence (Q92847 whole entry): as above

Compound	EC50/EMax: EC50 (Activity) ([1]; ghrelin agonist potency)	EC50 ([2]; inverse agonist potency, read-out: EC50 (Activity))	IC50 ([3]; ghrelin antagonist potency, read-out: IC50 (Activity))	EC50 [1]	EC50 [2, 4]	IC50 [3, 5]
C[C@H](NC(=O)Nc1ccc(S(=O)(=O)Nc2ccc3[nH]cnc3c2)cc1)c1cccc(Cl)c1Cl [H1111, (S)-N-(1H-benzo[d]imidazol-5-yl)-4-(3-(1-(2,3-dichlorophenyl)ethyl)ureido) benzenesulfonamide]	> 30000 nM	1230 nM	2250 nM	–	–	–
CC(NC(=O)Nc1ccc(S(=O)(=O)Cc2ccc3c(c2)CNC3)cc1)c1cccnc1 (stereo not drawn) [H1273, 1-(4-((isoindolin-5-ylmethyl)sulfonyl)phenyl)-3-(1-(pyridin-3-yl)ethyl)urea]	–	–	–	> 30000 nM	192 nM	1030 nM
CC(NC(=O)Nc1ccc(S(=O)(=O)Cc2ccc3c(c2)CNC3)cc1)c1ccncc1 (stereo not drawn) [H1274, 1-(4-((isoindolin-5-ylmethyl)sulfonyl)phenyl)-3-(1-(pyridin-4-yl)ethyl)urea]	–	–	–	> 30000 nM	685 nM	1580 nM
CC(NC(=O)Nc1ccc(S(=O)(=O)Cc2ccc(CN3CCOCC3)cc2)cc1)c1ccccc1 (stereo not drawn) [H1275, 1-(4-((4-(morpholinomethyl)benzyl)sulfonyl)phenyl)-3-(1-phenylethyl)urea]	–	–	–	> 30000 nM	310 nM	1020 nM
CC(NC(=O)Nc1ccc(S(=O)(=O)Cc2ccc3c(c2)CNC3)cc1)c1cc(N2CCOCC2)ccc1Cl (stereo not drawn) [H1283, 1-(1-(2-chloro-5-morpholinophenyl)ethyl)-3-(4-((isoindolin-5-ylmethyl)sulfonyl)phenyl)urea]	–	–	–	> 30000 nM	201 nM	379 nM
CC(NC(=O)Nc1ccc(S(=O)(=O)Cc2ccc3c(c2)CN(C)C3)cc1)c1cc(N2CCOCC2)ccc1Cl (stereo not drawn) [H1284, 1-(1-(2-chloro-5-morpholinophenyl)ethyl)-3-(4-(((2-methylisoindolin-5-yl)methyl)sulfonyl)phenyl)urea]	–	–	–	> 30000 nM	371 nM	1900 nM
CC(NC(=O)Nc1ccc(S(=O)(=O)Cc2ccc3c(c2)CNC3)cc1)c1ccccn1 (stereo not drawn) [H1289, 1-(4-((isoindolin-5-ylmethyl)sulfonyl)phenyl)-3-(1-(pyridin-2-yl)ethyl)urea]	–	–	–	147 nM	161 nM	542 nM
CC(NC(=O)Nc1ccc(S(=O)(=O)Cc2cccc(CN)c2)cc1)c1ccccc1 (stereo not drawn) [H1290, 1-(4-((3-(aminomethyl)benzyl)sulfonyl)phenyl)-3-(1-phenylethyl)urea]	–	–	–	> 30000 nM	722 nM	3410 nM
CC(NC(=O)Nc1ccc(S(=O)(=O)Cc2ccc3c(c2)C(=O)NC3)cc1)c1ccccc1 (stereo not drawn) [H1291, 1-(4-(((3-oxoisoindolin-5-yl)methyl)sulfonyl)phenyl)-3-(1-phenylethyl)urea]	–	–	–	> 30000 nM	468 nM	1200 nM
CC(NC(=O)Nc1ccc(S(=O)(=O)Cc2ccc3c(c2)C(O)CC3)cc1)c1ccccc1 (stereo not drawn) [H1293, 1-(4-(((3-hydroxy-2,3-dihydro-1H-inden-5-yl)methyl)sulfonyl)phenyl)-3-(1-phenylethyl)urea]	–	–	–	> 30000 nM	930 nM	5680 nM
COc1ccc(C(C)NC(=O)Nc2ccc3c(c2)C=C(c2ccc4c(c2)CN(Cc2ccccc2)C4)S3(=O)=O)cc1 (stereo not drawn) [H1296, 1-(2-(2-benzylisoindolin-5-yl)-1,1-dioxidobenzo[b]thiophen-5-yl)-3-(1-(4-methoxyphenyl)ethyl)urea]	–	–	–	13200 nM	4920 nM	> 30000 nM
COc1ccc(C(C)NC(=O)Nc2ccc(S(=O)(=O)Cc3ccc4c(c3)CNC4)cc2)cc1 (stereo not drawn) [H1298, 1-(4-((isoindolin-5-ylmethyl)sulfonyl)phenyl)-3-(1-(4-methoxyphenyl)ethyl)urea]	–	–	–	> 30000 nM	115 nM	506 nM
O=C(NCc1cccnc1)Nc1ccc(S(=O)(=O)Cc2ccc3c(c2)CNC3)cc1 [H1301, 1-(4-((isoindolin-5-ylmethyl)sulfonyl)phenyl)-3-(pyridin-3-ylmethyl)urea]	–	–	–	> 30000 nM	1140 nM	4450 nM
C[C@H](NC(=O)Nc1ccc(S(=O)(=O)CC2CCNCC2)cc1)c1ccccc1 [H1303, (S)-1-(1-phenylethyl)-3-(4-((piperidin-4-ylmethyl)sulfonyl)phenyl)urea]	–	–	–	> 30000 nM	> 30000 nM	> 30000 nM
CCN(CC)Cc1ccc(CS(=O)(=O)c2ccc(NC(=O)NC(C)c3ccccc3)cc2)cc1 (stereo not drawn) [H1304, 1-(4-((4-((diethylamino)methyl)benzyl)sulfonyl)phenyl)-3-(1-phenylethyl)urea]	–	–	–	> 30000 nM	182 nM	145 nM
CC(NC(=O)Nc1ccc(S(=O)(=O)Cc2ccc3c(c2)CN(C)C3)cc1)c1ccccn1 (stereo not drawn) [H1307, 1-(4-(((2-methylisoindolin-yl)methyl)sulfonyl)phenyl)-3-(1-(pyridin-2-yl)ethyl)urea]	–	–	–	> 30000 nM	935 nM	2300 nM
CC(NC(=O)Nc1ccc(S(=O)(=O)Cc2ccc3c(c2)CN(C)C3)cc1)c1cncnc1 (stereo not drawn) [H1309, 1-(4-(((2-methylisoindolin-5-yl)methyl)sulfonyl)phenyl)-3-(1-(pyrimidin-5-yl)ethyl)urea]	–	–	–	> 30000 nM	1840 nM	4500 nM
CC(=O)Oc1ccc(C(C)NC(=O)Nc2ccc(S(=O)(=O)Cc3ccc4c(c3)CNC4)cc2)cc1 (stereo not drawn) [H1310, 4-(1-(3-(4-((isoindolin-5-ylmethyl)sulfonyl)phenyl)ureido)ethyl)phenylacetate]	–	–	–	> 30000 nM	184 nM	262 nM
CC(NC(=O)Nc1ccc(S(=O)(=O)Cc2ccc3c(c2)CNC3)cc1F)c1ccccc1 (stereo not drawn) [H1316, 1-(2-fluoro-4-((isoindolin-5-ylmethyl)sulfonyl)phenyl)-3-(1-phenylethyl)urea]	–	–	–	> 30000 nM	11.6 nM	30.9 nM
CC(NC(=O)Nc1ccc(S(=O)(=O)Cc2cc3c(s2)CNC3)cc1)c1ccccc1 (stereo not drawn) [H1320, 1-(4-(((5,6-dihydro-4H-thieno[2,3-c]pyrrol-2-yl)methyl)sulfonyl)phenyl)-3-(1-phenylethyl)urea]	–	–	–	> 30000 nM	43.3 nM	58.4 nM
O=C(Nc1ccc(S(=O)(=O)Cc2ccc3c(c2)CNC3)cc1)NC1COc2ccccc21 (stereo not drawn) [H1330, 1-(2,3-dihydrobenzofuran-3-yl)-3-(4-((isoindolin-5-ylmethyl)sulfonyl)phenyl)urea]	–	–	–	> 30000 nM	142 nM	147 nM
COc1cc(N2C[C@@H](C)N[C@@H](C)C2)ccc1NS(=O)(=O)c1ccc(NC(=O)N[C@H](C)c2cccc(Cl)c2Cl)cc1 [H1362, 4-(3-((R)-1-(2,3-dichlorophenyl)ethyl)ureido)-N-(4-((cis)-3,5-dimethylpiperazin-1-yl)-2-methoxyphenyl) benzenesulfonamide]	–	–	–	> 30000 nM	–	1550 nM
CC(NC(=O)Nc1ccc(S(=O)(=O)CC2CCCN(CC3CCCO3)C2)cc1)c1cccc(Cl)c1Cl (stereo not drawn) [H1375, 1-(1-(2,3-dichlorophenyl)ethyl)-3-(4-(((1-((tetrahydrofuran-2-yl)methyl)piperidin-3-yl)methyl)sulfonyl)phenyl)urea]	–	–	–	> 30000 nM	–	> 30000 nM
CC(c1ccccc1)N(C)C(=O)Nc1ccc(S(=O)(=O)Cc2ccc3c(c2)CNC3)cc1F (stereo not drawn) [H1399, 3-(2-fluoro-4-((isoindolin-5-ylmethyl)sulfonyl)phenyl)-1-methyl-1-(1-phenylethyl)urea]	–	–	–	> 30000 nM	–	2060 nM
CC1Cc2cc(CS(=O)(=O)c3ccc(NC(=O)NC(C)c4cccc(Cl)c4Cl)c(F)c3)ccc2CN1 (stereo not drawn) [H1401, 1-(1-(2,3-dichlorophenyl)ethyl)-3-(2-fluoro-4-(((3-methyl-1,2,3,4-tetrahydroisoquinolin-6-yl)methyl)sulfonyl)phenyl)urea]	–	–	–	> 30000 nM	–	3.4 nM
CC1Cc2cc(CS(=O)(=O)c3ccc(NC(=O)N(C)C(C)c4cccc(Cl)c4Cl)c(F)c3)ccc2CN1 (stereo not drawn) [H1402, 1-(1-(2,3-dichlorophenyl)ethyl)-3-(2-fluoro-4-(((3-methyl-1,2,3,4-tetrahydroisoquinolin-6-yl)methyl)sulfonyl)phenyl)-1-methylurea]	–	–	–	> 30000 nM	–	75 nM
CC1Cc2cc(CS(=O)(=O)c3ccc(NC(=O)N[C@@H](C)c4cccc(Cl)c4Cl)cc3)ccc2CN1 (stereo partly drawn) [H1403, 1-((S)-1-(2,3-dichlorophenyl)ethyl)-3-(4-(((3-methyl-1,2,3,4-tetrahydroisoquinolin-6-yl)methyl)sulfonyl)phenyl)urea]	–	–	–	> 30000 nM	–	1.5 nM
